Assay results published in PubChem BioAssay AID1259407 (Chemical Carcinogenesis Research Information System (CCRIS), 2018).
Active and inactive are the calls of the source. The rule behind the calls is not given here.

Test system: CCRIS mutagenicity, Ames/micronucleus/aberration tests
Test: CCRIS mutagenicity studies
[1] = Test System: AMES SALMONELLA TYPHIMURIUM, Strain/Indicator: TA98, Metabolic Activation: NONE, Method: STANDARD PLATE
[2] = Test System: AMES SALMONELLA TYPHIMURIUM, Strain/Indicator: TA98, Metabolic Activation: RAT, LIVER, S-9, AROCLOR 1254, Method: STANDARD PLATE
[3] = Test System: AMES SALMONELLA TYPHIMURIUM, Strain/Indicator: TA100, Metabolic Activation: NONE, Method: STANDARD PLATE
[4] = Test System: AMES SALMONELLA TYPHIMURIUM, Strain/Indicator: TA100, Metabolic Activation: RAT, LIVER, S-9, AROCLOR 1254, Method: STANDARD PLATE
[5] = Test System: AMES SALMONELLA TYPHIMURIUM, Strain/Indicator: TA1538, Metabolic Activation: NONE, Method: STANDARD PLATE
[6] = Test System: AMES SALMONELLA TYPHIMURIUM, Strain/Indicator: TA1538, Metabolic Activation: RAT, LIVER, S-9, AROCLOR 1254, Method: STANDARD PLATE

In the case of CCCCCC[C@H]1C(=O)O[C@H](C)[C@H](NC(=O)c2cccc(NC=O)c2O)C(=O)O[C@@H](C)[C@@H]1OC(=O)CC(C)C, the mutagenic call (End Point: In vitro chromosomal aberrations, Test System: Chinese hamster lung (CHL/IU) cells, Metabolic Activation: None) is reported as “inactive; negative”, the mutagenic call (End Point: In vitro chromosomal aberrations, Test System: Chinese hamster lung (CHL/IU) cells, Metabolic Activation: Rat, Liver, S-9, Phenobarbital and 5,6-benzoflavone (16.7%)) is reported as “active; positive (structural aberrations)” and the mutagenic call (End Point: In vitro chromosomal aberrations, Test System: Chinese hamster ovary (CHO-WBL) cells, Metabolic Activation: Rat, Liver, S-9, Phenobarbital and 5,6-benzoflavone (5%)) is reported as “active; positive (structural changes and polyploidy)”. The mutagenic call (End Point: In vitro chromosomal aberrations, Test System: Chinese hamster ovary (CHO-WBL) cells, Metabolic Activation: Rat, Liver, S-9, Phenobarbital and 5,6-benzoflavone (16.7%)) was “active; positive (polyploidy)” and the mutagenic call (Test System: MOUSE LYMPHOMA, Strain/Indicator: L5178Y (TK+/TK-), Metabolic Activation: NONE, Method: SUSPENSION/PLATE) was “inactive; negative”.

In the case of COc1cc(N=Nc2ccccc2)ccc1N=Nc1c(S(=O)(=O)O)cc2ccc(N)cc2c1O, the mutagenic call [1] is reported as “inactive; negative”, the mutagenic call [2] is reported as “active; positive” and the mutagenic call [3] is reported as “inactive; negative”. The mutagenic call [4] was “active; positive”, the mutagenic call [5] was “inactive; negative” and the mutagenic call [6] was “active; positive”.

With CC(C)(C)N(CCO)CCO the mutagenic call [1] was “inactive; negative”, the mutagenic call [2] was “inactive; negative” and the mutagenic call [3] was “inactive; negative”. The mutagenic call [4] was “inactive; negative”, the mutagenic call (Test System: AMES SALMONELLA TYPHIMURIUM, Strain/Indicator: TA1535, Metabolic Activation: NONE, Method: STANDARD PLATE) was “inactive; negative” and the mutagenic call (Test System: AMES SALMONELLA TYPHIMURIUM, Strain/Indicator: TA1535, Metabolic Activation: RAT, LIVER, S-9, AROCLOR 1254, Method: STANDARD PLATE) was “inactive; negative”. For the same molecule, the mutagenic call (Test System: AMES SALMONELLA TYPHIMURIUM, Strain/Indicator: TA1537, Metabolic Activation: NONE, Method: STANDARD PLATE) was “inactive; negative”, the mutagenic call (Test System: AMES SALMONELLA TYPHIMURIUM, Strain/Indicator: TA1537, Metabolic Activation: RAT, LIVER, S-9, AROCLOR 1254, Method: STANDARD PLATE) was “inactive; negative” and the mutagenic call [5] was “inactive; negative”. The mutagenic call [6] was “inactive; negative”, the mutagenic call (Test System: CHINESE HAMSTER OVARY, Strain/Indicator: CHO-K1-BH4, Metabolic Activation: NONE) was “inactive; negative” and the mutagenic call (Test System: CHINESE HAMSTER OVARY, Strain/Indicator: CHO-K1-BH4, Metabolic Activation: RAT, LIVER, S-9, AROCLOR 1254) was “inactive; negative”.

For CCCCC(CC)COP(OCC(CC)CCCC)OCC(CC)CCCC (centres undefined), the mutagenic call (Test System: AMES SALMONELLA TYPHIMURIUM, Strain/Indicator: TA98, Metabolic Activation: HAMSTER, LIVER, S-9, AROCLOR 1254 (10%), Method: PREINCUBATION) was “inactive; negative”, the mutagenic call (Test System: AMES SALMONELLA TYPHIMURIUM, Strain/Indicator: TA98, Metabolic Activation: NONE, Method: PREINCUBATION) was “inactive; negative” and the mutagenic call (Test System: AMES SALMONELLA TYPHIMURIUM, Strain/Indicator: TA98, Metabolic Activation: RAT, LIVER, S-9, AROCLOR 1254 (10%), Method: PREINCUBATION) was “inactive; negative”. For the same molecule, the mutagenic call (Test System: AMES SALMONELLA TYPHIMURIUM, Strain/Indicator: TA100, Metabolic Activation: HAMSTER, LIVER, S-9, AROCLOR 1254 (10%), Method: PREINCUBATION) was “inactive; negative”, the mutagenic call (Test System: AMES SALMONELLA TYPHIMURIUM, Strain/Indicator: TA100, Metabolic Activation: NONE, Method: PREINCUBATION) was “inactive; negative” and the mutagenic call (Test System: AMES SALMONELLA TYPHIMURIUM, Strain/Indicator: TA100, Metabolic Activation: RAT, LIVER, S-9, AROCLOR 1254 (10%), Method: PREINCUBATION) was “inactive; negative”. For the same molecule, the mutagenic call (Test System: AMES SALMONELLA TYPHIMURIUM, Strain/Indicator: TA1535, Metabolic Activation: HAMSTER, LIVER, S-9, AROCLOR 1254 (10%), Method: PREINCUBATION) was “inactive; negative”, the mutagenic call (Test System: AMES SALMONELLA TYPHIMURIUM, Strain/Indicator: TA1535, Metabolic Activation: NONE, Method: PREINCUBATION) was “inactive; negative” and the mutagenic call (Test System: AMES SALMONELLA TYPHIMURIUM, Strain/Indicator: TA1535, Metabolic Activation: RAT, LIVER, S-9, AROCLOR 1254 (10%), Method: PREINCUBATION) was “inactive; negative”. For the same molecule, the mutagenic call (Test System: AMES SALMONELLA TYPHIMURIUM, Strain/Indicator: TA1537, Metabolic Activation: HAMSTER, LIVER, S-9, AROCLOR 1254 (10%), Method: PREINCUBATION) was “inactive; negative”, the mutagenic call (Test System: AMES SALMONELLA TYPHIMURIUM, Strain/Indicator: TA1537, Metabolic Activation: NONE, Method: PREINCUBATION) was “inactive; negative” and the mutagenic call (Test System: AMES SALMONELLA TYPHIMURIUM, Strain/Indicator: TA1537, Metabolic Activation: RAT, LIVER, S-9, AROCLOR 1254 (10%), Method: PREINCUBATION) was “inactive; negative”.

CCN(N)CC was tested, and the mutagenic call (Test System: AMES SALMONELLA TYPHIMURIUM, Strain/Indicator: TA100, Metabolic Activation: NONE, Method: PREINCUBATION (11 HR GROWTH PERIOD FOR BACTERIA)) was “inactive; negative”, the mutagenic call [3] was “inactive; negative” and the mutagenic call [4] was “inactive; negative”. For the same molecule, the mutagenic call (Test System: AMES SALMONELLA TYPHIMURIUM, Strain/Indicator: TA100, Metabolic Activation: RAT, LIVER, S-9, PCB, Method: PREINCUBATION (11 HR GROWTH PERIOD FOR BACTERIA)) was “inactive; negative”, the mutagenic call (Test System: AMES SALMONELLA TYPHIMURIUM, Strain/Indicator: TA102, Metabolic Activation: NONE, Method: PREINCUBATION (5 HR GROWTH PERIOD FOR BACTERIA)) was “active; positive” and the mutagenic call (Test System: AMES SALMONELLA TYPHIMURIUM, Strain/Indicator: TA102, Metabolic Activation: NONE, Method: PREINCUBATION (7 OR 11 HR GROWTH PERIOD FOR BACTERIA)) was “inactive; negative”. For the same molecule, the mutagenic call (Test System: AMES SALMONELLA TYPHIMURIUM, Strain/Indicator: TA102, Metabolic Activation: NONE, Method: STANDARD PLATE) was “inactive; negative”, the mutagenic call (Test System: AMES SALMONELLA TYPHIMURIUM, Strain/Indicator: TA102, Metabolic Activation: RAT, LIVER, S-9, AROCLOR 1254, Method: STANDARD PLATE) was “inactive; negative” and the mutagenic call (Test System: AMES SALMONELLA TYPHIMURIUM, Strain/Indicator: TA102, Metabolic Activation: RAT, LIVER, S-9, PCB, Method: PREINCUBATION (5 OR 7 HR GROWTH PERIOD FOR BACTERIA)) was “inactive; negative”.
